What was measured:
[1] = test system: harmful plants such as Stellaria media, Lolium multiflorum, Amaranthus retroflexus, Sinapis alba, Avena sativa and Setaria viridis; assay: Pre-emergence effect on weeds (greenhouse pot test, visual scoring); type: in vivo; details: applied pre-emergence at an application rate of 1 kg or less of active substance per hectare; scored visually after 3 to 4 weeks vs untreated controls;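 also: scored as plant damage or reduced emergence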
From the text: 1 Pre-emergence Effect on Weeds
Seeds or rhizome pieces of monocotyledonous and dicotyledonous weeds plants are placed in sandy loam soil in plastic pots and covered with soil. The compounds according to the invention which are formulated in the form of wettable powders or emulsion concentrates are then applied to the surface of the soil cover in the form of an aqueous suspension or emulsion at an application rate of 600 to 800 l of water/ha (converted), in various dosages.

[2] = test system: harmful plants such as Sinapis alba, Echinochloa crus- galli, Lolium multiflorum, Stellaria media, Cyperus iria, Amaranthus retroflexus, Setaria viridis and …; assay: Post-emergence effect on weeds (greenhouse pot test, visual scoring); type: in vivo; details: applied post-emergence (three-leaf stage) at an application rate of 1 kg and less of active substance per hectare; scored visually after about 3 to 4 weeks vs untreated controls
Description: 2. Post-emergence Effect on Weeds
Seeds or rhizome pieces of monocotyledonous and dicotyledonous weeds are placed in sandy loam soil in plastic pots, covered with soil and grown in the greenhouse under good growth conditions. Three weeks after sowing, the test plants are treated in the three-leaf stage. The compounds according to the invention which are formulated as wettable powders or as emulsion concentrates are sprayed in various dosages on the green parts of the plants at an application rate of 600 to 800 l of water/ha (converted). After the test plants have remained in the greenhouse for about 3 to 4 weeks under ideal growth conditions, the effect of the preparations is scored visually by comparison with untreated controls. The agents according to the invention also have a good herbicidal post-emergence action against a broad range of economically important grass weeds and dicotyledonous weeds.

SMILES | herbicidal action against harmful plants, pre-emergence [1] | herbicidal action against harmful plants, post-emergence [2]
CC(C)(F)c1nc(N)nc(NC(CCCc2cccc(F)c2)C2CC2)n1 (centres unmarked) [Example 22-24] | very good herbicidal action | very good herbicidal action
Cc1cccc(CCC(Nc2nc(N)nc(C(C)(C)F)n2)C2CC2)c1 (centres unmarked) [Example 9-16] | very good herbicidal action | very good herbicidal action
CC(C)c1nc(N)nc(NC(CCCc2ccccc2)C2CCC2)n1 (centres unmarked) [Example 28-4] | very good herbicidal action | very good herbicidal action
CC(C)(F)c1nc(N)nc(NC(CCc2cccc(F)c2)C2CCC2)n1 (centres unmarked) [Example 4-28] | very good herbicidal action | very good herbicidal action
CC(C)c1nc(N)nc(NC(CCc2ccccc2)c2ccoc2)n1 (centres unmarked) [Example 18-2] | very good herbicidal action | very good herbicidal action
COc1cccc(CCCC(Nc2nc(N)nc(C(C)C)n2)C2CC2)c1 (centres unmarked) [Example 22-29] | very good herbicidal action | very good herbicidal action
Cc1cccc(CCC(CC2CC2)Nc2nc(N)nc(C(C)(C)F)n2)c1 (centres unmarked) [Example 32-10] | very good herbicidal action | very good herbicidal action
Cc1cccc(CCCC(Nc2nc(N)nc(C(C)(C)F)n2)C2CC2)c1 (centres unmarked) [Example 22-27] | very good herbicidal action | very good herbicidal action
Cc1cc(C)cc(CCC(Nc2nc(N)nc(C(C)(C)F)n2)C2CC2)c1 (centres unmarked) [Example 9-17, 2-Amino-4-(1-fluoro-1-methylethyl)-6-[3-(3,5-dimethylphenyl)-1-cyclopropyl-1-propylamino]-1,3,5-triazine] | very good herbicidal action | very good herbicidal action
COc1cccc(CCCC(Nc2nc(N)nc(C(C)C)n2)C2CCC2)c1 (centres unmarked) [Example 28-20] | very good herbicidal action | very good herbicidal action
CC(C)c1nc(N)nc(NC(CCc2ccccc2)C2CCCC2)n1 (centres unmarked) [Example 8-1] | very good herbicidal action | very good herbicidal action
CC(C)(F)c1nc(N)nc(NC(CCc2ccccc2)c2ccoc2)n1 (centres unmarked) [Example 18-1] | very good herbicidal action | very good herbicidal action
CC(C)(F)c1nc(N)nc(NC(CCc2ccccc2)C2CCOC2)n1 (centres unmarked) [Example 20-1] | very good herbicidal action | very good herbicidal action
CCc1nc(N)nc(NC(CCc2ccccc2)CC2CC2(F)F)n1 (centres unmarked) [Example 33-4] | very good herbicidal action | very good herbicidal action
CC(C)(F)c1nc(N)nc(NC(CCCCc2ccccc2)C2CC2)n1 (centres unmarked) [Example 30-2] | very good herbicidal action | very good herbicidal action
CC(F)c1nc(N)nc(NC(CCCc2ccccc2)C2CC2)n1 (centres unmarked) [Example 22-3] | very good herbicidal action | very good herbicidal action

SMILES | herbicidal action against harmful plants, pre-emergence [1] | herbicidal action against harmful plants, post-emergence [2]
CC(C)c1nc(N)nc(NC(CCCc2cccc(F)c2)C2CC2)n1 (centres unmarked) [Example 22-25] | very good herbicidal action | very good herbicidal action
Cc1cccc(CCC(Nc2nc(N)nc(C(C)C)n2)C2CC2)c1 (centres unmarked) [Example 9-12] | very good herbicidal action | very good herbicidal action
CC(C)c1nc(N)nc(NC(CCc2cccc(F)c2)C2CCC2)n1 (centres unmarked) [Example 4-27] | very good herbicidal action | very good herbicidal action
CC(C)(F)c1nc(N)nc(NC(CCCc2ccccc2)C2CCC2)n1 (centres unmarked) [Example 28-10] | very good herbicidal action | very good herbicidal action
CC(C)(F)c1nc(N)nc(NC(CCc2cccc(Cl)c2)C2CCC2)n1 (centres unmarked) [Example 4-11] | very good herbicidal action | very good herbicidal action
Cc1cccc(CCCC(Nc2nc(N)nc(C(C)C)n2)C2CCC2)c1 (centres unmarked) [Example 28-17] | very good herbicidal action | very good herbicidal action
Cc1ccccc1CCC(Nc1nc(N)nc(C(C)C)n1)C1CCC1 (centres unmarked) [Example 4-26] | very good herbicidal action | very good herbicidal action
CC(C)(F)c1nc(N)nc(NC(C=Cc2ccccc2)C2CC2)n1 (centres unmarked) [Example 44-1] | very good herbicidal action | very good herbicidal action
Cc1nc(N)nc(NC(CCc2ccccc2)C2CC2)n1 (centres unmarked) [Example 9-3] | very good herbicidal action | very good herbicidal action
Cc1ccccc1CCC(Nc1nc(N)nc(C(C)(C)F)n1)C1CCC1 (centres unmarked) [Example 4-25] | very good herbicidal action | very good herbicidal action
Cc1cc(C)cc(CCCC(Nc2nc(N)nc(C(C)(C)F)n2)C2CC2)c1 (centres unmarked) [Example 22-28, 2-Amino-4-(1-fluoro-1-methylethyl)-6-[4-(3,5-dimethylphenyl)-1-cyclopropyl-1-butylamino]-1,3,5-triazine] | very good herbicidal action | very good herbicidal action
CCc1nc(N)nc(NC(CCc2ccccc2)C2CC2)n1 (centres unmarked) [Example 9-2] | very good herbicidal action | very good herbicidal action
CC(C)(F)c1nc(N)nc(NC(CCc2ccccc2)CC2CC2(F)F)n1 (centres unmarked) [Example 33-2] | very good herbicidal action | very good herbicidal action
CC(C)c1nc(N)nc(NC(CCCCc2ccccc2)C2CC2)n1 (centres unmarked) [Example 30-1] | very good herbicidal action | very good herbicidal action
CC(C)(F)c1nc(N)nc(NC(CCc2ccccc2)CC2CC2)n1 (centres unmarked) [Example 32-2] | very good herbicidal action | very good herbicidal action

— patent US20030162661A1, “2,4-Diamino-1,3,5-triazines, their preparation, and their use as herbicides and plant growth regulators” (priority 1998, published 2003)
